# Assay results from patent publication US20250277012A1 (Protagonist Therapeutics, Inc., priority 2021, published 2025).
# Starred links: 1 amine or outer side, 2 acyl side, 3 side chain; linkers in the order of their positions; H or OH if unused. Positions of bridges follow the written chain, without caps; N, C: chain ends. Non-standard residues stand in square brackets, D forms with d. Residues, ends and D or L forms follow the SMILES beside them. Groups on a side chain read outwards from the residue. ξ: configuration not given here. *: point of attachment. CH3O(CH2CH2O)11CH2CH2CO = COCCOCCOCCOCCOCCOCCOCCOCCOCCOCCOCCOCCC(=O)*; X13 = COC(=O)CCCCCCCCCCCCCCCCC(=O)NCC[N+](C)(C)CC(=O)*; X1 = C[N+](C)(CCNC(=O)CCCCCCCCCCCCCCCCC(=O)O)CC(=O)*; X5 = CCCCCCCCCCCCCCCC(=O)NCC[N+](C)(C)CC(=O)*; C18 diacid = O=C(O)CCCCCCCCCCCCCCCCC(=O)*; Dip = N[C@H](C(=O)O)C(c1ccccc1)c1ccccc1; ξDip = NC(C(=O)O)C(c1ccccc1)c1ccccc1; Pro(3R-OH) = O=C(O)[C@H]1NCC[C@H]1O; Ethylenediamine = C(CN[*:2])N[*:1]; Palmitoyl = CCCCCCCCCCCCCCCC(=O)*; NMeT = CN[C@H](C(=O)O)[C@@H](C)O; NMeE = CN[C@@H](CCC(=O)O)C(=O)O; NMeQ = CN[C@@H](CCC(N)=O)C(=O)O; β3hF = N[C@H](CC(=O)O)Cc1ccccc1; NMeK = CN[C@@H](CCCCN)C(=O)O; Isovaleryl = CC(C)CC(=O)*; hSer = N[C@@H](CCO)C(=O)O; Dap = NC[C@H](N)C(=O)O; AEEA = NCCOCCOCC(=O)O; Ahx = NCCCCCC(=O)O; ξC = NC(CS)C(=O)O
# Target: T1, ferroportin (Homo sapiens, UniProt Q9NP59)
# T1 sequence (Q9NP59 1-571): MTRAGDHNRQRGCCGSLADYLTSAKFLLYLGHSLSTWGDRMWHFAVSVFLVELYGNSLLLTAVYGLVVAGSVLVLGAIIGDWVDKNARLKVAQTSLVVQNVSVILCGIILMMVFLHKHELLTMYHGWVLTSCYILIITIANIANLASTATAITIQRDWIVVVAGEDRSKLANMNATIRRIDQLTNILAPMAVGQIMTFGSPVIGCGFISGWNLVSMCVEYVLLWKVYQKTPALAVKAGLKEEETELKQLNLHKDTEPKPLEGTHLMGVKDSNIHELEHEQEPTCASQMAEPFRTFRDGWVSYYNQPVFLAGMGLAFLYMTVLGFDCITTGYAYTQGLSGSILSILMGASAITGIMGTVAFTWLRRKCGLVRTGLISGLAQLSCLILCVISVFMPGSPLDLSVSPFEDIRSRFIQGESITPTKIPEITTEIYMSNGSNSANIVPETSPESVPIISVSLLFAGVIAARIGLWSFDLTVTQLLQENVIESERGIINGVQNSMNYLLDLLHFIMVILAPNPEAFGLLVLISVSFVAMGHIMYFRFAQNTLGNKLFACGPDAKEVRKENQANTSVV
# Experiment: T47D cell-based ferroportin internalization assay in presence of mouse serum albumin (MSA)
# Set-up: a human breast carcinoma adherent cell line which endogenously expresses ferroportin; host or cells: T47D
# Settings: T47D internalization assay in presence of mouse serum albumin (MSA); Table 6E
# Method: The potency of the peptides in causing ferroportin internalization was evaluated in a T47D cell-based assay. […] In this internalization assay, the potency of the test peptides was evaluated in presence of serum albumin which is the main protein component in the blood. T47D cells were maintained in RPMI media (containing required amount of fetal bovine serum) and regularly sub-cultured. In preparation for the assay, the cells were seeded in 96-well plates at a density of 80-100 k cells per well in 100 ul volume and allowed to rest overnight. […] Sigma, A3139). The test peptide dilution series were allowed to incubate at room temperature for 30 min. Then the media was aspirated from the 96-well cell plate and test peptide dilution series were added. […] The AF647-conjugated detection peptide was previously verified to bind to ferroportin and cause its internalization. The cells were washed again after a 2 hr incubation in preparation for flow cytometry analysis. The Median Fluorescence Intensity (MFI) of the AF647-positive population was measured (after removing dead cells and non-singlets from the analysis). The MFI values were used to generate a dose-response curve and obtain IC50 potencies for the test peptides.
row,IC50 [µM],Compound
1,0.01 to 0.1,COC(=O)CC[C@H](NC(=O)CC(C)C)C(=O)N[C@H](C(=O)N[C@@H](Cc1c[nH]cn1)C(=O)N[C@H](C(=O)N1CCC[C@H]1C(=O)N[C@H]1CSSC[C@@H](C(=O)N(C)[C@@H](CCCCNC(=O)COCCOCCNC(=O)COCCOCCNC(=O)C[N+](C)(C)CCNC(=O)CCCCCCCCCCCCCCCCC(=O)O)C(=O)N[C@H](C(=O)N[C@H](CCCCN)C(N)=O)C(c2ccccc2)c2ccccc2)NC1=O)C(c1ccccc1)c1ccccc1)[C@@H](C)O [compound 230] (Isovaleryl-E(OMe)TH[Dip]PCC[NMeK]([AEEA-AEEA-X1])[Dip][dK]-NH2; disulfide 6-7)
2,0.01 to 0.1,CC(C)CC(=O)N[C@@H](CCC(=O)O)C(=O)N[C@H](C(=O)N[C@@H](Cc1c[nH]cn1)C(=O)N[C@H](C(=O)N1CCC[C@H]1C(=O)N[C@H]1CSSC[C@@H](C(=O)N(C)[C@@H](CCCCNC(=O)COCCOCCNC(=O)COCCOCCNC(=O)[C@H](CN)NC(=O)CCCCCCCCCCCCCCCCC(=O)O)C(=O)N[C@H](CC(=O)N[C@H](CCCCN)C(=O)N(C)[C@@H](CCC(N)=O)C(N)=O)Cc2ccccc2)NC1=O)C(c1ccccc1)c1ccccc1)[C@@H](C)O [compound 251] (Isovaleryl-ETH[Dip]PCC[NMeK]([AEEA-AEEA-Dap-C18 diacid])[β3hF][dK][NMeQ]-NH2; disulfide 6-7)
3,0.01 to 0.1,COC(=O)CC[C@H](NC(=O)CC(C)C)C(=O)N[C@H](C(=O)N[C@@H](Cc1c[nH]cn1)C(=O)N[C@H](C(=O)N1CCC[C@H]1C(=O)N[C@H]1CSSC[C@@H](C(=O)N[C@@H](CCCCNC(=O)CCCCCNC(=O)C[N+](C)(C)CCNC(=O)CCCCCCCCCCCCCCCCC(=O)O)C(=O)N[C@H](CC(=O)N[C@H](CCCCN)C(N)=O)Cc2ccccc2)NC1=O)C(c1ccccc1)c1ccccc1)[C@@H](C)O [compound 315] (Isovaleryl-E(OMe)TH[Dip]PCCK([Ahx-X1])[β3hF][dK]-NH2; disulfide 6-7)

# Same assay, conditions: Table 6E; T47D internalization assay with MSA
row,IC50 [µM],Compound
1,0.01 to 0.1,COCCOCCOCCOCCOCCOCCOCCOCCOCCOCCOCCOCCC(=O)NCCCC[C@@H](NC(=O)[C@@H](NC(=O)[C@H](CCCCNC(=O)COCCOCCNC(=O)COCCOCCNC(=O)C[N+](C)(C)CCNC(=O)CCCCCCCCCCCCCCCCC(=O)O)NC(=O)[C@@H]1CSSC[C@H](NC(=O)[C@@H]2CCCN2C(=O)[C@@H](NC(=O)[C@H](Cc2c[nH]cn2)NC(=O)[C@@H](NC(=O)[C@H](CCC(=O)O)NC(=O)CC(C)C)[C@@H](C)O)C(c2ccccc2)c2ccccc2)C(=O)N1)C(c1ccccc1)c1ccccc1)C(N)=O [compound 203] (Isovaleryl-ETH[Dip]PCCK([AEEA-AEEA-X1])[Dip][dK](CH3O(CH2CH2O)11CH2CH2CO)-NH2; disulfide 6-7)
2,0.001 to 0.01,CCCCCCCCCCCCCCCC(=O)NCC[N+](C)(C)CC(=O)NCCCCCC(=O)NCCCC[C@@H](C(=O)N[C@H](C(=O)N[C@H](CCCCN)C(N)=O)C(c1ccccc1)c1ccccc1)N(C)C(=O)[C@@H]1CSSC[C@H](NC(=O)[C@@H]2CCCN2C(=O)[C@@H](NC(=O)[C@H](Cc2cnc[nH]2)NC(=O)[C@@H](NC(=O)[C@H](CCC(=O)O)NC(=O)CC(C)C)[C@@H](C)O)C(c2ccccc2)c2ccccc2)C(=O)N1 [compound 197] (Isovaleryl-ETH[Dip]PCC[NMeK]([Ahx-X5])[Dip][dK]-NH2; disulfide 6-7)

# The next lines start with the compound.
row,Compound,IC50 [µM]
1,CC(C)CC(=O)N[C@H]1CCC(=O)NCCCC[C@H](C(N)=O)NC(=O)[C@H](C(c2ccccc2)c2ccccc2)NC(=O)[C@H](CCCCNC(=O)CCCCCNC(=O)C[N+](C)(C)CCNC(=O)CCCCCCCCCCCCCCCCC(=O)O)N(C)C(=O)[C@@H]2CSSC[C@H](NC(=O)[C@@H]3CCCN3C(=O)[C@H](C(c3ccccc3)c3ccccc3)NC(=O)[C@H](Cc3cnc[nH]3)NC(=O)[C@H]([C@@H](C)O)NC1=O)C(=O)N2 [compound 193] (Isovaleryl-ETH[Dip]PCC[NMeK]([Ahx-X1])[Dip][dK]-NH2; lactam 1-10; disulfide 6-7),0.01 to 0.1
2,CCCCCCCCCCCCCCCC(=O)NCC[N+](C)(C)CC(=O)NCCCC[C@@H](C(=O)N[C@H](C(=O)N(C)[C@@H](CCCCN)C(N)=O)C(c1ccccc1)c1ccccc1)N(C)C(=O)[C@@H]1CSSC[C@H](NC(=O)[C@@H]2CCCN2C(=O)[C@@H](NC(=O)[C@H](Cc2c[nH]cn2)NC(=O)[C@H]([C@@H](C)O)N(C)C(=O)[C@H](CCC(=O)OC)NC(=O)CC(C)C)C(c2ccccc2)c2ccccc2)C(=O)N1 [compound 149] (Isovaleryl-E(OMe)[NMeT]H[Dip]PCC[NMeK](X5)[Dip][NMeK]-NH2; disulfide 6-7),0.01 to 0.1
3,COC(=O)CCCCCCCCCCCCCCCCC(=O)NCC[N+](C)(C)CC(=O)NCCCCCC(=O)NCCCC[C@H]1C(=O)NC(C(c2ccccc2)c2ccccc2)C(=O)N[C@@H](C(N)=O)CCCCNC(=O)CC[C@H](NC(=O)CC(C)C)C(=O)N[C@@H]([C@@H](C)O)C(=O)N[C@@H](Cc2c[nH]cn2)C(=O)N[C@@H](C(c2ccccc2)c2ccccc2)C(=O)N2CCC[C@H]2C(=O)N[C@H]2CSSC[C@H](NC2=O)C(=O)N1C (some centres unmarked) [compound 160] (Isovaleryl-ETH[Dip]PCC[NMeK]([Ahx-X13])[ξDip][dK]-NH2; lactam 1-10; disulfide 6-7),0.01 to 0.1
4,CC(C)CC(=O)N[C@@H](CCC(=O)O)C(=O)N1CC[C@@H](O)[C@H]1C(=O)N[C@@H](Cc1c[nH]cn1)C(=O)N[C@H](C(=O)N1CCC[C@H]1C(=O)N[C@H]1CSSC[C@@H](C(=O)N(C)[C@@H](CCCCNC(=O)CCCCCNC(=O)C[N+](C)(C)CCNC(=O)CCCCCCCCCCCCCCCCC(=O)O)C(=O)N[C@H](C(N)=O)C(c2ccccc2)c2ccccc2)NC1=O)C(c1ccccc1)c1ccccc1 [compound 154] (Isovaleryl-E[Pro(3R-OH)]H[Dip]PCC[NMeK]([Ahx-X1])[Dip]-NH2; disulfide 6-7),0.01 to 0.1
5,CCCCCCCCCCCCCCCC(=O)NCCCCCC(=O)NCCCC[C@@H](C(=O)N[C@H](C(=O)NCCN)C(c1ccccc1)c1ccccc1)N(C)C(=O)C1CSSC[C@H](NC(=O)[C@@H]2CCCN2C(=O)[C@@H](NC(=O)[C@H](Cc2c[nH]cn2)NC(=O)[C@@H](NC(=O)[C@H](CCC(=O)O)NC(=O)CC(C)C)[C@@H](C)O)C(c2ccccc2)c2ccccc2)C(=O)N1 (some centres unmarked) [compound 164] (Isovaleryl-ETH[Dip]PC[ξC][NMeK]([Ahx-Palmitoyl])[Dip]-Ethylenediamine; disulfide 6-7),0.001 to 0.01
6,CCCCCCCCCCCCCCCC(=O)NCCCCCC(=O)NCCCC[C@@H](C(=O)N[C@H](C(=O)N[C@H](CCCCN)C(N)=O)C(c1ccccc1)c1ccccc1)N(C)C(=O)[C@@H]1CSSC[C@H](NC(=O)[C@@H]2CCCN2C(=O)[C@@H](NC(=O)[C@H](Cc2cnc[nH]2)NC(=O)[C@@H](NC(=O)[C@H](CCO)NC(=O)CC(C)C)[C@@H](C)O)C(c2ccccc2)c2ccccc2)C(=O)N1 [compound 168] (Isovaleryl-[hSer]TH[Dip]PCC[NMeK]([Ahx-Palmitoyl])[Dip][dK]-NH2; disulfide 6-7),0.001 to 0.01
7,CCCCCCCCCCCCCCCC(=O)NCC[N+](C)(C)CC(=O)NCCCC[C@@H](C(=O)N[C@H](C(N)=O)C(c1ccccc1)c1ccccc1)N(C)C(=O)[C@@H]1CSSC[C@H](NC(=O)[C@@H]2CCCN2C(=O)[C@@H](NC(=O)[C@H](Cc2cnc[nH]2)NC(=O)[C@@H]2[C@H](O)CCN2C(=O)[C@H](CCC(=O)O)NC(=O)CC(C)C)C(c2ccccc2)c2ccccc2)C(=O)N1 [compound 150] (Isovaleryl-E[Pro(3R-OH)]H[Dip]PCC[NMeK](X5)[Dip]-NH2; disulfide 6-7),0.001 to 0.01
8,CCCCCCCCCCCCCCCC(=O)NCCCCCC(=O)NCCCC[C@@H](C(=O)N[C@H](C(=O)N[C@H](CCCCN)C(N)=O)C(c1ccccc1)c1ccccc1)N(C)C(=O)[C@@H]1CSSC[C@H](NC(=O)[C@@H]2CCCN2C(=O)[C@@H](NC(=O)[C@H](Cc2cnc[nH]2)NC(=O)[C@@H](NC(=O)[C@H](CCC(=O)O)N(C)C(=O)CC(C)C)[C@@H](C)O)C(c2ccccc2)c2ccccc2)C(=O)N1 [compound 166] (Isovaleryl-[NMeE]TH[Dip]PCC[NMeK]([Ahx-Palmitoyl])[Dip][dK]-NH2; disulfide 6-7),0.001 to 0.01
9,CC(C)CC(=O)N[C@@H](CCC(=O)O)C(=O)N(C)[C@H](C(=O)N[C@@H](Cc1c[nH]cn1)C(=O)N[C@H](C(=O)N1CCC[C@H]1C(=O)N[C@H]1CSSC[C@@H](C(=O)N(C)[C@@H](CCCCNC(=O)CCCCCNC(=O)C[N+](C)(C)CCNC(=O)CCCCCCCCCCCCCCCCC(=O)O)C(=O)N[C@H](C(=O)N[C@H](CCCCN)C(N)=O)C(c2ccccc2)c2ccccc2)NC1=O)C(c1ccccc1)c1ccccc1)[C@@H](C)O [compound 190] (Isovaleryl-E[NMeT]H[Dip]PCC[NMeK]([Ahx-X1])[Dip][dK]-NH2; disulfide 6-7),0.1 to 0.5
